Test results published in patent US9301965B2, “Method of treating ovarian cancer using a PKC inhibitor” (University of South Florida, priority 2014, dated 2016).
“And” between values parts separate entries of the source, which are not always exact repeats. Identical values can stand only once.

Assays:
[1] = target: T1, PKC-ζ (Homo sapiens, UniProt Q05513); conditions: cited from earlier work
T1 sequence (Q05513 1-592): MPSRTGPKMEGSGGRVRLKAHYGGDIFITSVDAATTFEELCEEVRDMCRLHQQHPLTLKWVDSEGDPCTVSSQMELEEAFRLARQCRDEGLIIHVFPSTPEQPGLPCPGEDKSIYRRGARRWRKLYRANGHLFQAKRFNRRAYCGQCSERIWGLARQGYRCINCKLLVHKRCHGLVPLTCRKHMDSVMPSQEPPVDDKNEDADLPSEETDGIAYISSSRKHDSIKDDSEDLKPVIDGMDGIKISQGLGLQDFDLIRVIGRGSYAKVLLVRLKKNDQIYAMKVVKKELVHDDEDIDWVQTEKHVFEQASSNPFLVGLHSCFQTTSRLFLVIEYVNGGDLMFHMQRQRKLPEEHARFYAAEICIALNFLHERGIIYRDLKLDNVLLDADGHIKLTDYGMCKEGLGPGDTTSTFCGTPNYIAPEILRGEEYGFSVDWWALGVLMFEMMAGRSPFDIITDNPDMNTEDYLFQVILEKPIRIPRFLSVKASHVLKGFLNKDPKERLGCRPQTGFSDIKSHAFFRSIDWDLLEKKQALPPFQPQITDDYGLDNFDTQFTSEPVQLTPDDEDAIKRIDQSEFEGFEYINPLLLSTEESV

[2] = system: HEY ovarian cancer cells; assay: HEY cell proliferation, Trypan blue exclusion assay; type: cell-based, human
Procedure: HEY human ovarian carcinoma cells were obtained from Dr. Meera Nanjundan's laboratory at the University of South Florida. The cells were grown as a monolayer in a T25 tissue culture flask with 5 mL of growth medium and maintained in a 37° C. incubator with 5% CO2. The RPMI1640 growth medium was obtained from and American Type Culture Collection (ATCC) and Life Technologies (Carlsbad, Calif.). The medium was supplemented with 10% fetal bovine serum (FBS) and a mix of the antibiotics Penicillin (10,000 IU) and Streptomycin (10,000 μg/ml) in a 100× concentration which was purchased from Corning.
HEY cells were cultured in a T25 cell culture flask. 13,000 cells were seeded into each well in a 6-well culture plate. ACPD was weighed and dissolved in water to create a 100 mM stock solution. From this solution, serial dilutions were done to create a 1 mM stock solution which was then used for treatment. In order to assess the effect of ACPD on cell viability, three wells were treated with 2 μM ACPD while the other three wells were left untreated as controls. The treatment period was 72 hours with the growth medium being changed every 24 hours. The cells were also washed with DPBS every time the growth medium was changed. Cell viability was determined at 24, 48 and 72 hours using a Trypan blue exclusion assay where 30 μL of the cell suspension was added to 30 μL of Trypan blue. The number of unstained cells was counted using a hematocytometer. The same procedures were used for ICA-1.
The experiments were performed as per the protocol described by Patel et al. (2008), herein incorporated by reference. Briefly, cells were cultured in T75 flasks in monolayers. For treatment, 40,000 cells were seeded into T75 flasks and treated for 72 hours with ICA-1 and ACPD. The proliferation was measured each day by a Trypan Blue exclusion assay which involved staining the cells with Trypan Blue and counting them under a microscope using a hemocytometer.

[3] = target: PKC-δ (Homo sapiens, UniProt Q05655); conditions: cited from earlier work
PKC-δ, sequence (Q05655 whole entry): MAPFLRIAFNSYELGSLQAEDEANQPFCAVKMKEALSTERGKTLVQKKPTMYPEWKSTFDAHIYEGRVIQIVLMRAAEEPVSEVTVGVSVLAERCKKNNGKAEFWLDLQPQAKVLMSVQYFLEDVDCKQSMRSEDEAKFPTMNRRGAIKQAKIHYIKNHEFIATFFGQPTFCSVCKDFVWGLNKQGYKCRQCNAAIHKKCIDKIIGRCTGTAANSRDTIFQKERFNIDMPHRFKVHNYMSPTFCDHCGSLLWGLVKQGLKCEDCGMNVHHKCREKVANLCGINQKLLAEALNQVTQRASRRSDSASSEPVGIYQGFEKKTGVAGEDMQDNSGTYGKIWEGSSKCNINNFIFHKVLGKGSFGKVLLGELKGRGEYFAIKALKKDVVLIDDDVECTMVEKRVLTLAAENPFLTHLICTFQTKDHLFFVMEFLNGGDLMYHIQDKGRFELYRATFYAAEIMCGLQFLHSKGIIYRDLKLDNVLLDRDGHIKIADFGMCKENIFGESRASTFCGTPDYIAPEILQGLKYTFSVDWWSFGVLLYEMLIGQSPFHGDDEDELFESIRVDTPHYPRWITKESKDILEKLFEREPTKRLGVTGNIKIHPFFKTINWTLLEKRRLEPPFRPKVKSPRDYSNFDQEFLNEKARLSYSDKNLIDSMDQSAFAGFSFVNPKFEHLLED

[4] = target: PKC-β (Homo sapiens, UniProt P05771); conditions: cited from earlier work
PKC-β, sequence (P05771 whole entry, species assumed): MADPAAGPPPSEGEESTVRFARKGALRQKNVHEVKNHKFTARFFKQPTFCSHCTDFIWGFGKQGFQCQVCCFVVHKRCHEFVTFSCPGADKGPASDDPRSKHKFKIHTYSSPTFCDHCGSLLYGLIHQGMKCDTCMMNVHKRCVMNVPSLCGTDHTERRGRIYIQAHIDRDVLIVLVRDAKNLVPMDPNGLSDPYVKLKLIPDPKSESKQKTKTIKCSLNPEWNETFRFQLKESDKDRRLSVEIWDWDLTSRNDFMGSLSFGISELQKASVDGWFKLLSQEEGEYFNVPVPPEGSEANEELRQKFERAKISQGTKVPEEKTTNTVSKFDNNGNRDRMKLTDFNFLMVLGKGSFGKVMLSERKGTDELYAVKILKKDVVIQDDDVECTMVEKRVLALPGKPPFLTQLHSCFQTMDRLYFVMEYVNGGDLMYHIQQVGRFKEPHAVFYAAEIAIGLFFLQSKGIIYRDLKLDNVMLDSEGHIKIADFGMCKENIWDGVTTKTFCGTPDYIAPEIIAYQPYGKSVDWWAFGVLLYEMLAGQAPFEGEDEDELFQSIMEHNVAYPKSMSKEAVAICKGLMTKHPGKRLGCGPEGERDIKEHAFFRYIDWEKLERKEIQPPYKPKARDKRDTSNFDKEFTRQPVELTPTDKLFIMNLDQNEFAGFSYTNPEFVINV

[5] = target: PKC-α (Homo sapiens, UniProt P17252); conditions: cited from earlier work
[6] = system: HEY ovarian cancer cells; assay: Total RNA concentration of HEY cells (Rneasy Mini Kit, NanoDrop1000); type: cell-based, human; conditions: for reduction of total RNA: 2 μM
Source text: RNA was isolated from the treated and untreated cells using the Rneasy Mini Kit and protocol. The total RNA concentration was estimated using the NanoDrop1000 spectrophotometer.

[7] = target: T2, PKC-ε (Homo sapiens, UniProt Q02156); conditions: cited from earlier work
T2 sequence (Q02156 1-737): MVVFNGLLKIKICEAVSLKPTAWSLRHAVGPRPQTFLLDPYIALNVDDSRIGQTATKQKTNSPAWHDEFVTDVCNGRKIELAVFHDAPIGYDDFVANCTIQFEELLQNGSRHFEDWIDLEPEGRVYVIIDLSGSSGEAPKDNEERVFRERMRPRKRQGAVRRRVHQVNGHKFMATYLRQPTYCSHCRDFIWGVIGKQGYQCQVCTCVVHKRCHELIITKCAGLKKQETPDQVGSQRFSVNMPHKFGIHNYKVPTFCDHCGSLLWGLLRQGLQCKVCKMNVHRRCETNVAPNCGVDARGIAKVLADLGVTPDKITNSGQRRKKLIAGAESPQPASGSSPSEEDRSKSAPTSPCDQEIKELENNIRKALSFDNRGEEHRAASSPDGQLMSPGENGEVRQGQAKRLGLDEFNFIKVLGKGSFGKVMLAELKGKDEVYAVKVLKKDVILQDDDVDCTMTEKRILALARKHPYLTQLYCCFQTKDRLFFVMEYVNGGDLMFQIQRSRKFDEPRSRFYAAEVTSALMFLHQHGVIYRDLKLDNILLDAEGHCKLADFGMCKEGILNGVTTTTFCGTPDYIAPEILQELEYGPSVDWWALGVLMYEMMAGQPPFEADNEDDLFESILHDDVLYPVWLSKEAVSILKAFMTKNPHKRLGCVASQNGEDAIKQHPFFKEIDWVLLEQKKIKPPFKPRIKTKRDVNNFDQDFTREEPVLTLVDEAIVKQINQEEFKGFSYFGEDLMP

[8] = target: T3, PKC-ι (Homo sapiens, UniProt P41743); conditions: cited from earlier work
T3 sequence (P41743 1-596): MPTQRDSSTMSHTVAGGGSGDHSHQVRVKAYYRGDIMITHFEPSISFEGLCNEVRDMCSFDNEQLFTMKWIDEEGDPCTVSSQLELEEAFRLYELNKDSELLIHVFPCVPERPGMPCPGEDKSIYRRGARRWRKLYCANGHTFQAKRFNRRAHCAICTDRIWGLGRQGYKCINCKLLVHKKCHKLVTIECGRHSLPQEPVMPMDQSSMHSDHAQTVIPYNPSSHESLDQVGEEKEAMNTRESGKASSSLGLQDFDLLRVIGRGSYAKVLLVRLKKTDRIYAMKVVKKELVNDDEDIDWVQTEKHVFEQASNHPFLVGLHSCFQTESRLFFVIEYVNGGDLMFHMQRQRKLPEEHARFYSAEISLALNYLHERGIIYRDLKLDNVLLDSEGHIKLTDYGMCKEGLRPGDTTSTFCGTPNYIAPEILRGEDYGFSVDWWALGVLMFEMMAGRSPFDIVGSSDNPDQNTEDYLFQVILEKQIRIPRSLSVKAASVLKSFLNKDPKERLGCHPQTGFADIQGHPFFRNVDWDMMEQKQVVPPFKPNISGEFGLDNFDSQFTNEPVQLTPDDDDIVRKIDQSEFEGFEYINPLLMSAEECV

[9] = target: T3, PKC-ι; conditions: cited from earlier work; remark: listed apart in the source

SMILES	inhibition of PKC-ζ [1]	reduction of cell proliferation ([2]; 800 nM, 72 hour treatment) [%]	reduction of cell proliferation ([2]; 1.8 μM, 72 hour treatment) [%]	reduction of cell proliferation ([2]; 2 μM, 24 hours, compared to controls)	reduction of cell proliferation ([2]; 2 μM, 48 hours)	effectiveness in inhibiting cell proliferation relative to ICA-1 ([2]; HEY ovarian cancer cells)	inhibition of PKC-δ [3]	inhibition of PKC-β [4]	inhibition of PKC-α [5]	reduction of total RNA concentration ([6]; 1.8 μM, 72 hour treatment) [%]	reduction of total RNA ([6]; 24 hours)	reduction of total RNA ([6]; 48 hours)	reduction of total RNA ([6]; 72 hours)	inhibition of PKC-ε [7]	inhibition of PKC-ι [8]	binding to PKC-ι [9]
CC(=O)C1=C(O)CCC1=O [ACPD, 2-acetyl-1,3-cyclopentanedione]	inhibits both PKC-ζ and PKC-ι	16	28	82% and 81.75%	60.5% and 60%	over five times more effective than ICA-1	not PKC-α, PKC-β, PKC-δ, or PKC-ε	not PKC-α, PKC-β, PKC-δ, or PKC-ε	not PKC-α, PKC-β, PKC-δ, or PKC-ε	38	97% and 97.4%	52.4% and 52%	34.3% and 34%	not PKC-α, PKC-β, PKC-δ, or PKC-ε	inhibits both PKC-ζ and PKC-ι	
O=C([O-])CC([S][Au])C(=O)[O-] (centres unmarked) [Sodium aurothiomalate]																low micromolar range
OC[C@H]1O[C@H]([S][Au])[C@H](O)[C@@H](O)[C@@H]1O [aurothioglucose]																low micromolar range
